Common to all, as to format: biochemical
Experiment [1] has as its target T1, human synovial collagenase (Homo sapiens, UniProt P03956).
T1 construct: endogenous in cells; host or cells: primary human synovial cells from a knee synovectomy, stimulated with SK Hepatoma conditioned medium
T1 sequence (P03956 100-469): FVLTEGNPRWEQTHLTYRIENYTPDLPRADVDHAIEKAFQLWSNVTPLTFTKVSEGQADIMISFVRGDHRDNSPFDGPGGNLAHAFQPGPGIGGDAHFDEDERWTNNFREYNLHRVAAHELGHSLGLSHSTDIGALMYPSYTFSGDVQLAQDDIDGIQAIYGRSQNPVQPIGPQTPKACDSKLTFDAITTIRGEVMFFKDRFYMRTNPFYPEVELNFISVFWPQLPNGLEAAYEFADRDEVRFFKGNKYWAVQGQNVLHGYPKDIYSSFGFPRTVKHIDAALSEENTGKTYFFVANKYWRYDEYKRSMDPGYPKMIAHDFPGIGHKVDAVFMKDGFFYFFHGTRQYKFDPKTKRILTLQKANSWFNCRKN
As to the kind of experiment: Collagenase inhibition test (14C-collagen assay), synovial collagenase. As to conditions: for Ki: 0.50 M NaCl, 0.01 M CaCl2, 0.05 M Tris, pH 7.5, 35° C., Dixon plot, single substrate concentration 10 μM collagen. The protocol:
(§1) ^14 C-collagen was prepared by reductive methylation of calf skin collagen at 4° C. using ^14 C-formaldehyde and sodium borohydride. Calf skin collagen (Sigma) was dissolved at 7.5 mg/ml in 60 ml of 0.10M acetic acid and dialyzed at 4° C. against 0.15M potassium phosphate, pH 7.6, for eight hours followed by dialysis overnight against 0.4M NaCl. The collagen solution was then adjusted to pH 9.0 by addition of 0.50M sodium borate and then 1 mCi of ^14 C-formaldehyde (10 mCi/mmol) was added. After one minute, 0.10M sodium borohydride (660 μl in 1.3 mM NaOH) was added in four aliquots, followed by an additional aliquot (340 μl) 30 minutes later. The solution was then dialyzed exhaustively against 0.01M acetic acid, centrifuged to remove particulates and stored frozen in 1 ml aliquots. Specific activity was 1.3×10^6 DPM/mg. Unlabeled collagen was prepared in the same way, stored frozen and mixed with labeled collagen at a ratio of 9 to 1. For assay, the diluted ^14 C-collagen was dialyzed 6-8 hours at 4° C. against 0.15M potassium phosphate, pH 7.6, followed by dialysis overnight against 0.4M sodium chloride. This solution was centrifuged to remove any undissolved collagen and stored at 4° C.
(§2) Collagenase asays were carried out according to the method of Terato et al., Biochim. Biophys. Acta 445, 753 (1976). They were performed in 1.5 ml polypropylene microfuge tubes. Each assay tube contained 50 μl of ^14 C-collagen solution (4 mg/ml) and 50 μl of 1.0M glucose, 0.10M Tris, 0.4M NaCl, 0.02M CaCl2, pH 7.5. This solution was incubated for ten minutes at 35° C. and the reaction initiated by the addition of 100 μl of enzyme solution. Those samples containing procollagenase were first activated by incubating 100 μl aliquots with 1-5 μl of 10 mg/ml trypsin (in 1 mM HCl) for 20 minutes at 23° C., followed by 20 μl of 5 mg/ml soybean trypsin inhibitor (in 0.05M Tris, 0.01M CaCl2, pH 7.5) to quench the trypsin activity. The collagenase assay was terminated after 30 minutes at 35° C. by the addition of 20 μl of 0.08M 1,10-phenanthroline in 50% (v/v) dioxane and the incubation was continued for one hour at 35° C. to denature the collagen digestion products. Each sample was cooled for 15 minutes at 23° and 200 μl of dioxane was added with vigorous vortexing to precipitate uncleaved collagen. Following centrifugation at 11,000 RPM, 350 μl aliquots were added to 5.0 ml of Pico-Fluor 30 to determine radioactivity.
(§3) Collagenase activities were measured in the presence of the test compounds by adding an aliquot of the compound (0-85 μl) and buffer to 100 μl of glucose-collagen solution to give a total volume of 185 μl, incubating at 35° C. for 10 minutes and then initiating the reaction with 15 μl of purified collagenase. The rest of the assay was performed as described above.
(§4) To determine the mechanism of inhibition, the following equation was used [(Holmquist and Vallee, J. Biol. Chem. 249, 4601 (1974)] [formula] where Ao is the activity in the absence of inhibitor and AI is the activity in the presence of inhibitor.
Approximately 2.0 gms of synovial tissue were obtained from a patient undergoing synovectomy of the knee. All procedures were carried out in a laminar flow hood under aseptic conditions. The tissue was placed in 250 ml McCoys 5A (modified) medium containing 200 μg/ml gentamicin and stored overnight at 0° C. The next day the tissue was warmed to room temperature, cut into 0.25 cm pieces and added to 11 ml of serum-free DMEM, containing 4 mg/ml clostridial collagenase (Worthington). After incubating the mixture for one hour at room temperature, an equal volume of 0.25% trypsin was added and the incubation continued for an additional thirty minutes. The cells were spun down at 400×g for ten minutes, resuspended in 20 ml trypsin/EDTA (Gibco 10×) and incubated for 30 minutes with occasional mixing by drawing through a 25 ml pipet. The suspension was centrifuged and the pellet was washed two times with PBS:DMEM (1:1) containing 10% FBS. […]

Experiment [2] deals with T2, human skin fibroblast collagenase (Homo sapiens, UniProt P03956).
T2 construct: active collagenase isolated by this method consisted of two bands, a major species with molecular weight 45,000; host or cells: normal human skin fibroblasts CRL 1224 in SK Hepatoma conditioned medium
T2 sequence (P03956 100-469): T1 sequence (P03956 100-469)
As to the kind of experiment: Collagenase inhibition test (14C-collagen assay), skin fibroblast collagenase. The note with it: 0.50 M NaCl, 0.01 M CaCl2, 0.05 M Tris, pH 7.5, 35° C.; Dixon plot, single substrate concentration 10 μM collagen. The protocol:
as §1, §2, §3, §4
One vial of normal skin fibroblasts was purchased (American Type Cell Culture CRL 1224), thawed at 37° C. and transferred to a 150 cm^2 T-flask. Fifty ml of DMEM containing 10% FBS were added and the cells incubated for one week at 37° C. under 5% CO2. The cells were then split into three T-flasks. When the flasks became overgrown with cells, normal media was replaced with SK Hepatoma conditioned media and changed twice a week. This media was stored and used as the starting material for collagenase isolation.
The other test compounds were assumed to inhibit by the same mechanism so that all studies were performed at only a single substrate concentration, 10μM, and the KI values were determined from the intersection with the abscissa.

Experiment [3] concerns the target T3, human collagenase isolated from skin fibroblasts and synovial cells (Homo sapiens, UniProt P03956).
T3 construct: endogenous in cells; host or cells: human skin fibroblasts (CRL 1224) or primary human synovial cells; enzyme purified from conditioned medium
T3 sequence (P03956 100-469): T1 sequence (P03956 100-469)
As to the kind of experiment: Collagenase inhibition, (enzyme source not distinguished). The protocol:
as §1, §2
Collagenase activities were measured in the presence of the test compounds by adding an aliquot of the compound (0-85 μl) and buffer to 100 μl of glucose-collagen solution to give a total volume of 185 μl, incubating at 35° C. for 10 minutes and then initiating the reaction with 15 μl of purified collagenase. The rest of the assay was performed as described above. […]

The source of these data is patent US4720486A, “Method of inhibiting vertebrate collagenase activity using peptide hydroxamic acid derivatives” (Monsanto Company, priority 1987, dated 1988).

As a reminder, the Ki is a dissociation constant, usually derived from enzyme kinetics or from competition with a known ligand. A high value points to lower affinity.

Where a SMILES comes first, the peptide text is derived from it. The star is where a group is joined. Cbz = O=C(OCc1ccccc1)*; NHOH = ON*

In the case of `CSCCC(NC(=O)OCc1ccccc1)C(=O)NCC(=O)NO` (centres unmarked) [Z--Met--Gly--NHOH], the Ki was determined as 200 µM in experiment [1] and 150 µM in experiment [2].
As to `CC(C)C[C@H](NC(=O)[C@@H]1CCCN1C(=O)OCc1ccccc1)C(=O)NCC(=O)NO` [Z--Pro--Leu--Gly--NHOH, N-Benzyloxycarbonyl-L-prolyl-L-leucylglycine Hydroxamic Acid] (Cbz-Pro-Leu-Gly-{NHOH}), the Ki is 47 µM in experiment [1] and 40 µM in experiment [2]. For the same compound, the “mechanism of inhibition (Dixon plot)” value in experiment [1] (three substrate concentrations, 3.9 μM, 1.3 μM and 0.7 μM collagen, FIG. 1) is reported as “non-competitive inhibition”. The “times more active than Zincov” value in experiment [3] (estimated, ratio of KI values) was 50 to 100 times. The KI in experiment [3] (human collagenase) worked out at 40 µM. For the same compound, the “times more effective than the corresponding Z--Leu--Leu--Gly--NHOH analog” value in experiment [3] (ratio of KI values) was “ten”.
As for `NCC(=O)NO` [Gly--NHOH], the Ki was 18000 µM in experiment [1] and more than 1000 µM in experiment [2].
`CC(C)CC(C(=O)NO)C(=O)N[C@@H](C)C(=O)NCC(N)=O` (stereo partly drawn) [Zincov, 2-(N-Hydroxycarboxamido)-4-methylpentanoyl-L-Ala-glycine amide] yielded an inhibition constant (Ki) in experiment [3] (human collagenase) of 2000 µM.
Take `O=C(CNC(=O)CNC(=O)OCc1ccccc1)NO` [Z--Gly--Gly--NHOH] (Cbz-Gly-Gly-{NHOH}): the results for the Ki in experiment [1] and in experiment [2] were 2000 µM and 3000 µM, respectively.
For `CC(NC(=O)OCc1ccccc1)C(=O)NCC(=O)NO` (centres unmarked) [Z--Ala--Gly--NHOH] the same measures were 2600 µM and 1300 µM.
For `O=C(CNC(=O)C(Cc1ccccc1)NC(=O)OCc1ccccc1)NO` (centres unmarked) [Z--Phe--Gly--NHOH] the same measures were 100 µM and 150 µM.
Turning to `CC(C)CC(NC(=O)OCc1ccccc1)C(=O)NCC(=O)NO` (centres unmarked) [Z--Leu--Gly--NHOH], the Ki came out at 170 µM in experiment [1] and 480 µM in experiment [2].
For the compound `CC(C)C[C@H](NC(=O)OCc1ccccc1)C(=O)N[C@@H](CC(C)C)C(=O)NCC(=O)NO` [Z--Leu--Leu--Gly--NHOH] (Cbz-Leu-Leu-Gly-{NHOH}), the figures for the Ki in experiment [1] and in experiment [2] were 330 µM and 300 µM, respectively.
As to `O=C(CNC(=O)OCc1ccccc1)NO` [Z--Gly--NHOH], the results for the inhibition constant Ki in experiment [1] and in experiment [2] were 960 µM and 600 µM, respectively.
